Laboratory results reported in PubChem BioAssay AID651973 (The Scripps Research Institute Molecular Screening Center, 2013).
The source made the active and inactive calls. No rule for the calls is given here.

system: Cell-based VP16 transactivation luciferase reporter, luminescence; experiment: compounds lowering VP16-driven luciferase output – cell-based, luminescence, counter-screen for LRH-1 inverse agonist project, dose response (AID 651973)

SMILES | IC50
COc1ccc(CCNC(=O)COC(=O)c2cc(Cl)nc(Cl)c2)cc1 | > 35.9 µM (inactive)
O=C(Nc1ccccc1)c1oc2ccccc2c1NC(=O)C1CC1 | > 35.9 µM (inactive)
CC(O)(c1cccnc1)c1nc(-c2cccc(C#N)c2)cs1 (stereo not given) | > 35.9 µM (inactive)
CCc1cc(=O)[nH]c(SCC(=O)Nc2ccc3c(c2)OCCO3)n1 | > 35.9 µM (inactive)
Cc1cc([N+](=O)[O-])ccc1NC(=O)CSc1nnc(C)n1C | > 35.8 µM (inactive)
COc1cc([N+](=O)[O-])ccc1NC(=O)Cn1ccsc1=N | > 35.9 µM (inactive)
COc1ccc(OCCNC(=O)C2(C)CCN2Cc2ccc(SC)cc2)cc1 (stereo not given) | 28.5 µM (inactive)
CCCc1cc(=O)oc2c(C)c(OCC(=O)NCCN3CCOCC3)ccc12 | > 35.9 µM (inactive)
O=C(Nc1ccc(C(=O)N2CCOCC2)cc1)c1cccc([N+](=O)[O-])c1 | > 35.9 µM (inactive)
COC(=O)c1ccc(CNC(=O)COC(=O)c2cc(Cl)nc(Cl)c2)cc1 | > 35.9 µM (inactive)
CCCc1cc(=O)oc2cc(OCC(=O)NCc3ccccn3)ccc12 | > 35.9 µM (inactive)
CCOc1ccc(NC(=O)CSc2nncc(=O)[nH]2)cc1 | > 35.9 µM (inactive)
CCCc1cc(=O)oc2cc(C)cc(OCC(=O)Nc3ccccn3)c12 | > 35.9 µM (inactive)
O=c1[nH]c(Nc2ccc3c(c2)OCCO3)nnc1Cc1ccccc1 | > 35.9 µM (inactive)
CC(=O)Nc1ccc(NC(=O)CSc2nnnn2C2CCCCC2)cc1 | > 35.9 µM (inactive)
COC(=O)c1ccc(NC(=O)CSc2nn3c(=O)c(C)nnc3s2)cc1 | > 35.9 µM (inactive)
CCCc1nnc(SCC(=O)Nc2ccc(OC)cc2)o1 | > 35.9 µM (inactive)
Cc1cccc(NC(=O)COC(=O)Cc2cccs2)c1C | > 35.9 µM (inactive)
O=C(NCC1CCCO1)c1ccc(NC(=O)c2cccc([N+](=O)[O-])c2)cc1 (stereo not given) | > 35.9 µM (inactive)
COc1ccccc1NC(=O)CN1CCN(CC(=O)Nc2ccc3c(c2)OCCO3)CC1 | > 35.9 µM (inactive)
N=c1sccn1CC(=O)Nc1ccc(S(N)(=O)=O)cc1 | > 35.9 µM (inactive)
CC(O)(c1cccc(F)c1)c1nc(-c2ccc(S(C)(=O)=O)cc2)cs1 (stereo not given) | 16.2 µM (inactive)
Cc1cccc(NC(=O)COC(=O)CN2C(=O)c3ccccc3C2=O)c1C | > 35.9 µM (inactive)
Cc1no[n+]([O-])c1COc1ccccc1/C=N/n1nnnc1N | > 35.9 µM (inactive)

SMILES | IC50
O=C(CCl)NCCN1C(=O)S/C(=C\c2cccnc2)C1=O | 26.8 µM (inactive)
COc1ccc(CCNC(=O)CSc2ccc(NC(C)=O)cc2)cc1OC | > 35.9 µM (inactive)
COC(=O)c1ccc(NC(=O)COc2cccc(-n3cnnn3)c2)cc1 | > 35.9 µM (inactive)
COc1ccc(CCNC(=O)CN2C(=O)NC3(CCCCC3C)C2=O)cc1 (stereo not given) | > 35.9 µM (inactive)
COc1cc(C(=O)Nc2ccccc2N2CCN(S(C)(=O)=O)CC2)cc(OC)c1OC | > 35.9 µM (inactive)
CC(=O)Nc1ccc(NC(=O)CSc2nnc(NC(=O)C3CC3)s2)cc1 | > 35.9 µM (inactive)
CC(=O)Nc1ccc(N=c2cc([N+](=O)[O-])cc(Cl)n2O)cc1 | > 35.9 µM (inactive)
CC(=O)Nc1ccc(NC(=O)CSc2ccc(-c3ccco3)nn2)cc1 | > 35.9 µM (inactive)
O=C(Nc1ccc(S(=O)(=O)N2CCOCC2)cc1)c1ccc([N+](=O)[O-])o1 | 25.5 µM (inactive)
Cc1ccc(NC(=O)COC(=O)C(NS(=O)(=O)c2ccc(Cl)cc2)C(C)O)c(Br)c1 (stereo not given) | > 35.9 µM (inactive)
Cc1nnc(SCC(=O)Nc2ccc(Br)cc2)n(N)c1=O | > 35.9 µM (inactive)
Cc1onc(-c2ccccc2)c1C(=O)O/N=C(\N)c1ccc([N+](=O)[O-])o1 | > 35.9 µM (inactive)
O=C(COc1ccc2c3c(c(=O)oc2c1)CCCC3)NCCN1CCOCC1 | > 35.8 µM (inactive)
Cc1ccn2c(=O)nc(SCC(=O)Nc3ccc4c(c3)OCCO4)nc2c1 | > 35.9 µM (inactive)
O=C(Nc1ccc(Cc2ccncc2)cc1)c1ccc([N+](=O)[O-])o1 | > 35.9 µM (inactive)
COC(=O)c1ccc(NC(=O)CSc2ccc(-c3ccccn3)nn2)cc1 | > 35.9 µM (inactive)
CCc1cc(=O)oc2c(C)c(OCC(=O)NCCN3CCOCC3)ccc12 | > 35.9 µM (inactive)
CC(=O)Nc1ccc(NC(=O)CSc2nnc(-c3cc4ccccc4o3)n2C)cc1 | > 35.9 µM (inactive)
Cn1cc(Cl)c(C(=O)OCC(=O)Nc2ccc(S(N)(=O)=O)cc2)n1 | > 35.9 µM (inactive)
COc1ccc(CCNC(=O)CSc2nc3[nH]c(=O)cc(O)c3s2)cc1 | > 35.9 µM (inactive)
COc1ccccc1Oc1nnnn1-c1ccc(C(N)=O)cc1 | > 35.9 µM (inactive)
NS(=O)(=O)c1ccc(CCNC(=O)COc2ccc3c4c(c(=O)oc3c2)CCC4)cc1 | > 35.9 µM (inactive)
CC1CC(C)CN(c2cc(N(C)CCO)c([N+](=O)[O-])c3nonc23)C1 (stereo not given) | > 35.9 µM (inactive)
O=C(CSc1n[nH]c(-c2ccccc2)n1)Nc1ccc(F)cc1F | > 35.9 µM (inactive)

SMILES | IC50
O=C(COC(=O)CCN1C(=O)C2CC=CCC2C1=O)NCCc1ccccc1 (stereo not given) | > 35.9 µM (inactive)
COc1ccc(CCNC(=O)COC(=O)C23CC4CC(CC(C4)C2)C3)cc1 | > 35.9 µM (inactive)
Cc1c(NC(=S)NC(=O)c2ccc(Cl)cc2)c(=O)n(-c2ccccc2)n1C | > 35.9 µM (inactive)
COc1ccc(NC(=O)CSc2sc3c(O)cc(=O)[nH]c3c2C#N)c(OC)c1 | > 35.9 µM (inactive)
O=C(CN1C(=O)CCC1=O)Nc1ccc(Br)cc1 | > 35.9 µM (inactive)
O=C(CSc1nnc(CNC(=O)c2ccccc2F)o1)Nc1ccc2c(c1)OCCO2 | > 35.9 µM (inactive)
COc1ccc(OC)c(NC(=O)c2ccccc2NC(=O)c2ccco2)c1 | > 35.9 µM (inactive)
Cc1cc(Br)ccc1NC(=O)CN1C(=O)C2CC=CCC2C1=O (stereo not given) | > 35.9 µM (inactive)
COc1cccc(NC(=O)c2oc3ccccc3c2NC(=O)C2CC2)c1 | > 35.9 µM (inactive)
Cc1cc(Br)ccc1NC(=O)CSc1nnc(CN2CCOCC2)n1C | > 35.9 µM (inactive)
COc1ccc(NS(=O)(=O)c2ccc(OCC(=O)N3CCN(C)CC3)cc2)cc1Cl | > 35.9 µM (inactive)
CCOC(=O)c1cc2sccc2n1CC(=O)Nc1ccc2c(c1)OCCO2 | > 35.9 µM (inactive)
CC(O)(c1ccc(F)c(F)c1)c1nc(-c2ccc(S(C)(=O)=O)cc2)cs1 (stereo not given) | 34.7 µM (inactive)
CCOc1ccc(NC(=O)CSc2nccn(-c3ccc4c(c3)OCCO4)c2=O)cc1 | > 35.9 µM (inactive)
O=C(Cc1ccc(S(=O)(=O)N2CCCC2)s1)Nc1cccc([N+](=O)[O-])c1 | 14.1 µM (inactive)
NC(=O)C1CCN(C(=O)COc2ccc3c4c(c(=O)oc3c2)CCC4)CC1 | > 35.9 µM (inactive)
Cc1ccc(-c2csc(NC(=O)c3ccc([N+](=O)[O-])o3)n2)cc1 | > 35.9 µM (inactive)
Cc1ccccc1Nc1nc(-c2cccnc2)nc2ccccc12 | 34.6 µM (inactive)
CC(=O)Nc1ncc(Cc2cc(Cl)ccc2Cl)s1 | > 35.9 µM (inactive)
O=C(CN1C(=O)NC2(CCCC2)C1=O)NCCc1ccc(F)cc1 | > 35.9 µM (inactive)
CCOCC(=O)Nc1ccc(S(=O)(=O)NCCc2ccccc2)cc1 | > 35.9 µM (inactive)
NS(=O)(=O)c1ccc(O)c(NC(=O)c2ccc([N+](=O)[O-])o2)c1 | > 35.9 µM (inactive)
CCOc1ccc(NC(=O)CSc2nc3[nH]ncc3c(=O)[nH]2)cc1 | > 35.9 µM (inactive)
CCOc1ccc(NC(=O)COC(=O)COc2cccc3c2OC(C)(C)C3)cc1 | > 35.9 µM (inactive)

SMILES | IC50
COc1ccc(CCNC(=O)COC(=O)C23CC4CC(CC(Br)(C4)C2)C3)cc1 | > 35.9 µM (inactive)
Cc1cccc(NC(=O)CSc2nc3[nH]ncc3c(=O)[nH]2)c1C | > 35.9 µM (inactive)
Cc1onc(-c2c(F)cccc2Cl)c1C(=O)O/N=C(\N)c1ccc([N+](=O)[O-])o1 | > 35.9 µM (inactive)
COc1ccc(NC(=O)CSc2nc3nc(C)cc(C)c3c(=O)[nH]2)cc1 | > 35.9 µM (inactive)
CCOc1ccc(NC(=O)COC(=O)C2CCC(=O)N2)c([N+](=O)[O-])c1 (stereo not given) | > 35.8 µM (inactive)
COc1ccc(S(=O)(=O)Nc2ccc3c(c2)n(C)c(=O)n3C)cc1F | > 35.9 µM (inactive)
Cc1nn(CC(=O)Nc2ccc3c(c2)OCCO3)c(C)c1[N+](=O)[O-] | > 35.9 µM (inactive)
CCCc1cc(=O)oc2cc(C)cc(OCC(=O)NC3CC3)c12 | > 35.9 µM (inactive)
CC(C)CC1(C)NC(=O)N(CC(=O)Nc2ccc3c(c2)OCCO3)C1=O (stereo not given) | > 35.9 µM (inactive)
O=C(COC(=O)c1ccc(=O)n(Cc2ccccc2)n1)Nc1ccc2c(c1)OCCO2 | > 35.9 µM (inactive)
Cc1ccc(-c2nn3c(C)nnc3s2)cc1NC(=O)c1ccco1 | > 35.9 µM (inactive)
O=C1CCCN2N=C(SCC(=O)Nc3ccc(Br)cc3)SC2=N1 | > 35.9 µM (inactive)
Cc1ccc(C)c(NC(=O)CSc2nc3[nH]ncc3c(=O)[nH]2)c1 | > 35.9 µM (inactive)
COC(=O)c1ccc(NC(=O)CN2CCN(c3ccc(Cl)cc3)CC2)cc1 | > 35.9 µM (inactive)
CCOc1ccc(OCCC(=O)OCC(=O)Nc2ccc3c(c2)OCCO3)cc1 | > 35.9 µM (inactive)
COc1ccc(/C=N/NC(=O)c2ccc(NC(=O)c3cccc([N+](=O)[O-])c3)cc2)c(OC)c1 | > 35.9 µM (inactive)
CCC(C)NC(=O)c1ccc2c(c1)N(Cc1ccccc1)C(=O)CS2 (stereo not given) | > 35.9 µM (inactive)
COc1ccc(C2(C)NC(=O)N(CC(=O)Nc3ccc(C)cc3Br)C2=O)cc1OC (stereo not given) | > 35.9 µM (inactive)
Cc1ccc(C)c(NC(=O)CSc2nnc(-c3n[nH]c4ccccc34)o2)c1 | > 35.9 µM (inactive)
CCCN(CC(=O)Nc1ccc(C(C)=O)cc1)CC(=O)Nc1ccccc1C | > 35.9 µM (inactive)
Cc1ccc2cccc(OCC(=O)NCCC3=CCCCC3)c2n1 | > 35.8 µM (inactive)
O=C(NCc1cccnc1)c1cccc2c1C(=O)N(C1CCCCC1)C2 | > 35.9 µM (inactive)
COc1ccnc(Oc2ccccc2)c1C(=O)N/C=N/OCc1ccccc1F | 28.2 µM (inactive)
